The source made the active and inactive calls.
Columns and labels:
Cytochrome P450 2C19 = Cytochrome P450 2C19 (Homo sapiens, UniProt P33261); assay: qHTS Assay for Inhibitors and Substrates of Cytochrome P450 2C19. [Related pubchem assays: 410 ]; format: ADME; conditions: read-out: Potency
[1] = MC4R antagonists, dose response, counter-screen for LGR2 antagonist project, cell-based, plate reader, cherry pick (AID 743444); format: functional;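 further: transfected HEK 293 cells stimulated with alpha-MSH peptide; potency of inhibitors of the alpha-MSH evoked signal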
[2] = HepG2 cell cytotoxicity, dose response, cytotoxicity control, plate reader, cherry-pick, antagonist series (AID 743416); format: functional, cell-based
[3] = A549 cell cytotoxicity, dose response, cytotoxicity control, plate reader, cherry-pick, antagonist series (AID 743412); format: functional, cell-based
Estrogen receptor beta [4] = target: T1, Estrogen receptor beta (Homo sapiens, UniProt Q92731); assay: ERβ–SRC-3 coactivator interaction inhibitors, confirmation, orthogonal assay, biochemical, ELISA, streptavidin-HRP readout (AID 1060)
T1 sequence (Q92731 whole entry): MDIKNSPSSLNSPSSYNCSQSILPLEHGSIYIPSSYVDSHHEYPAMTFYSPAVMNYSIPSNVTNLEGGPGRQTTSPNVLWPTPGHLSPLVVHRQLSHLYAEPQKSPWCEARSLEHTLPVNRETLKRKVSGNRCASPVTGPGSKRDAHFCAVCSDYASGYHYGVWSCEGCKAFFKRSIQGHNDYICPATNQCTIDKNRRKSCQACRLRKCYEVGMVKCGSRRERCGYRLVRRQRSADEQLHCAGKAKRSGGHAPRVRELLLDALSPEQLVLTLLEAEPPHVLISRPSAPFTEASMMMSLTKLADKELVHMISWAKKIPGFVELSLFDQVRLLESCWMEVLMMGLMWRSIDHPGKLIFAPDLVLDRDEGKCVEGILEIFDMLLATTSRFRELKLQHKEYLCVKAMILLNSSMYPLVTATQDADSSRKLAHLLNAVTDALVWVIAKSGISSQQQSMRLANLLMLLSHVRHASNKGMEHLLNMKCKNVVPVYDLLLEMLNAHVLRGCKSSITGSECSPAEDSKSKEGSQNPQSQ

Estrogen receptor = target: T2, Estrogen receptor (Homo sapiens, UniProt P03372);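 further: potency for inhibiting coactivator peptide recruitment to the receptor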
T2 sequence (P03372 whole entry): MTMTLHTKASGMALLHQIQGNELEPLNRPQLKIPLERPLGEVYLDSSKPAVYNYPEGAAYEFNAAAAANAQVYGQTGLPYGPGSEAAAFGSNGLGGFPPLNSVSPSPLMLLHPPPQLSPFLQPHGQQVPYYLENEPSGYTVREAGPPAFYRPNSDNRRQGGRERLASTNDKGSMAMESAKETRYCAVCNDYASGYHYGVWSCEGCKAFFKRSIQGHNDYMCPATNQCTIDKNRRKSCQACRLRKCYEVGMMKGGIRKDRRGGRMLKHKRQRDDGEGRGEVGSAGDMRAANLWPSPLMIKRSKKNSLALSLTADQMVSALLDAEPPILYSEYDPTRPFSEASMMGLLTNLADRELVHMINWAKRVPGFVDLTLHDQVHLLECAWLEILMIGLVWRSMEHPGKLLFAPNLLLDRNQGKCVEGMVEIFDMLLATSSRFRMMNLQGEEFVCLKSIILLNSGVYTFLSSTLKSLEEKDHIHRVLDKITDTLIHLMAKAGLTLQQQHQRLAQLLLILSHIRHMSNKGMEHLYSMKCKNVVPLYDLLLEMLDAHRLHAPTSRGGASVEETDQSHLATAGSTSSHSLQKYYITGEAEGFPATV

Estrogen receptor beta [5] = target: T1, Estrogen receptor beta
[6] = T. cruzi growth inhibition in host cells, dose response, cell-based, plate reader, dry powder, set 2 (AID 652275); format: functional
[7] = target: T3, Sentrin-specific protease 8 (Homo sapiens, UniProt Q96LD8); format: functional
T3 sequence (Q96LD8 whole entry): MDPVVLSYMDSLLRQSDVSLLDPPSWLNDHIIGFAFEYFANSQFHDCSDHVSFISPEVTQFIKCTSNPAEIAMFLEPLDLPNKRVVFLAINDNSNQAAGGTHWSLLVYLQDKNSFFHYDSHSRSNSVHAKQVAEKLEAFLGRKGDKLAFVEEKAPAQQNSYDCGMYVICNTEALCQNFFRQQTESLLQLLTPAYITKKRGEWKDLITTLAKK

[8] = target: T3, Sentrin-specific protease 8; format: functional; remark: listed apart in the source
[9] = P. falciparum Dd2 growth inhibitors, dose response, SYBR Green, dry powder samples, set 9 (AID 1159568); format: functional, cell-based
[10] = StAR promoter reporter inhibition counter-screen, dose response, counter-screen for LRH-1 inverse agonist project, cell-based, luminescence, luciferase reporter (AID 651969); format: functional
[11] = microbe, parasite or virus in culture; format: functional; conditions: Mycobacterium tuberculosis
[12] = target: Nuclear receptor subfamily 5 group A member 2 (Homo sapiens, UniProt O00482); format: functional, cell-based;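 further: HEK293T cells transfected with LRH-1 and a StAR promoter luciferase reporter; potency for inhibitors that lower LRH-1 driven reporter light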
Nuclear receptor subfamily 5 group A member 2, sequence (O00482 whole entry): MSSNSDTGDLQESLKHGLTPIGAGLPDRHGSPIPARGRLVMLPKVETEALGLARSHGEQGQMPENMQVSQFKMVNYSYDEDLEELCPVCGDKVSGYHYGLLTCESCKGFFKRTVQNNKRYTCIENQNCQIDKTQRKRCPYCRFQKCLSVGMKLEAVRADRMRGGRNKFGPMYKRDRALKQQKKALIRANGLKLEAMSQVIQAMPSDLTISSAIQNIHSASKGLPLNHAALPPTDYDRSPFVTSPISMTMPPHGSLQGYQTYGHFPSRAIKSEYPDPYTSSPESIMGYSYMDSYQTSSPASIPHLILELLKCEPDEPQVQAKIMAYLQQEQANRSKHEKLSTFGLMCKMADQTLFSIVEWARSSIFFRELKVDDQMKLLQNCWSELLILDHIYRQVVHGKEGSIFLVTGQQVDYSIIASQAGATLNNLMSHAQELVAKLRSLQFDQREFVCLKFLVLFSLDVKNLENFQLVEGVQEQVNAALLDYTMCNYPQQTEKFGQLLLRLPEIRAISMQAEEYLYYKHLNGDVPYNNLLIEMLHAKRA

Steroidogenic factor 1 = Steroidogenic factor 1 (Homo sapiens, UniProt Q13285); assay: Counterscreen for inverse agonists of the liver receptor homolog-1 (LRH-1; NR5A2): Luminescence-based cell-based high throughput dose response assay to identify inverse agonists of the Steroidogenic Factor 1 Nuclear Receptor (SF1; NR5A1).; format: functional
Steroidogenic factor 1, sequence (Q13285 whole entry): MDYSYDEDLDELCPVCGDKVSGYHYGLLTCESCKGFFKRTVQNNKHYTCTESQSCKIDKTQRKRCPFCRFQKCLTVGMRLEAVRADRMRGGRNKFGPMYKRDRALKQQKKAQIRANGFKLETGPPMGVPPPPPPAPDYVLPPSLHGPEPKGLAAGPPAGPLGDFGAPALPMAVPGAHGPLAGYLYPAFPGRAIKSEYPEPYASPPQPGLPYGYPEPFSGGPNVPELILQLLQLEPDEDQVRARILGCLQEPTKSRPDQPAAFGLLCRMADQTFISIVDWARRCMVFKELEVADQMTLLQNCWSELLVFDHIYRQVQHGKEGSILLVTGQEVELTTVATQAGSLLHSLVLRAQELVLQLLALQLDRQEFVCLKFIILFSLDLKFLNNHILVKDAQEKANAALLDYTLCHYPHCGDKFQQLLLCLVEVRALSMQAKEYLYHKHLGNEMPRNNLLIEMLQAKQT

[13] = P. falciparum 3D7-ScDHODH growth inhibitors, dose response, SYBR Green, dry powder samples (AID 1159570); format: functional, cell-based;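 further: parasite growth measured after 72 hours of compound exposure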
[14] = P. falciparum Dd2 growth inhibitors, dose response, SYBR Green, cherry-picked samples (AID 1159567); format: functional, cell-based
[15] = P. falciparum Dd2 growth inhibitors, dose response, SYBR Green, dry powder samples (AID 1159566); format: functional, cell-based;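 further: potency for growth inhibition with lower SYBR green DNA signal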
[16] = HepG2 cell cytotoxicity, dose response, cytotoxicity control, plate reader, dry powder samples (AID 1159569); format: functional, cell-based;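 further: inhibitor potency with signal falling toward the positive control level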
[17] = P. falciparum ATP4 D1247Y mutant growth inhibitors, dose response, NITD609-resistant line, SYBR Green, dry powder (AID 1159571); format: functional, cell-based;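 further: parasites synchronized at ring stage by sorbitol before testing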
Paired box protein Pax-8 = Paired box protein Pax-8 (Homo sapiens, UniProt Q06710); assay: inhibitors of PAX8-driven TPO luciferase reporter, dose response, RMG-I cells, cherry-pick (AID 687027); format: functional, cell-based;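 further: luciferase reporter driven by Pax8 target thyroperoxidase promoter measured by SteadyGlo luminescence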
Paired box protein Pax-8, sequence (Q06710 whole entry): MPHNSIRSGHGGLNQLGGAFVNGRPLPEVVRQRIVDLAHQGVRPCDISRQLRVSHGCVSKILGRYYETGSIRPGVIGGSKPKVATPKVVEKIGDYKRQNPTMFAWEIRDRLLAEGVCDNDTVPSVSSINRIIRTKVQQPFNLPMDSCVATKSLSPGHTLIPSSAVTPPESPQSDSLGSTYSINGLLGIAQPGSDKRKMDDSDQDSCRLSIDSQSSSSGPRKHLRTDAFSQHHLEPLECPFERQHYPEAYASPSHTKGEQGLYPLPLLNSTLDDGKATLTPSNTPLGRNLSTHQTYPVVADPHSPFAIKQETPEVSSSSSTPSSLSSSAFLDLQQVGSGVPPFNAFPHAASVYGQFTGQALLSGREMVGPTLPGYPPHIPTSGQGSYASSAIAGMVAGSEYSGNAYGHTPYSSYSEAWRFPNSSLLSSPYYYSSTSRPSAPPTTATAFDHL

[18] = cytotoxicity in OVCAR8 ovarian cancer cells, dose response, PAX8 project, cell-based, plate reader, dry powder samples (AID 743197); format: functional; conditions: OVCAR-8
[19] = non-specific cell cytotoxicity, dose response, cytotoxicity control for PAX8 inhibitor project, plate reader, dry powder samples (AID 743021); format: functional, cell-based
[20] = NIH:OVCAR-3 ovarian cancer cell cytotoxicity, dose response, PAX8 inhibitor project, plate reader, dry powder samples (AID 743044); format: functional, cell-based
[21] = inhibitors of PGC1a acetylation in cells, dose response, cell-based, cherry-picked samples (AID 720514); format: functional;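 further: potency may reflect raised or lowered acetylation signal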
[22] = Dose-response inhibition of insulin secretion in a rat insulinoma line at 5 mM glucose (AID 1117331); format: functional, cell-based; conditions: INS-1E
[23] = inhibitors of Vif binding to APOBEC3G peptide, primary screen, biochemical, TR-FRET, GST-Vif 1-94, biotin-A3G peptide, dose response retest (AID 1117319); format: functional;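 further: TR-FRET signal of purified GST-Vif binding a biotinylated A3G peptide; inhibitors lower the FRET signal by blocking Vif and A3G binding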
[24] = target: T4, DNA repair protein RAD52 homolog (Homo sapiens, UniProt P43351); format: functional, biochemical
T4 sequence (P43351 whole entry): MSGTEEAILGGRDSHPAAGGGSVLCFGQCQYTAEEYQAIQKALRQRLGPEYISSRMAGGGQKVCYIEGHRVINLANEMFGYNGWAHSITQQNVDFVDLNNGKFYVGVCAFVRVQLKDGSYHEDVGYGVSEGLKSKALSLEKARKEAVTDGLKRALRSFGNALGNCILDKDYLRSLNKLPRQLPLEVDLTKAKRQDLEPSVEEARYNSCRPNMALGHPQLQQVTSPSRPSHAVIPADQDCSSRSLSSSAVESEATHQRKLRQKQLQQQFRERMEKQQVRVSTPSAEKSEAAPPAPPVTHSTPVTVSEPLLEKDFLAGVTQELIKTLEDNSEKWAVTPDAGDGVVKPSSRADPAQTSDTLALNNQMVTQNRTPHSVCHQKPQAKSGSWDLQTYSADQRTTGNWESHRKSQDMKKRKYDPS

[25] = Counterscreen for inhibitors of Trypanosoma brucei methionyl tRNA synthetase (MetRS): Luminescence-based cell-based high throughput dose response assay to identify compounds that are cytotoxic to Jurkat human T lymphocyte cells.; format: functional
[26] = target: T5, Methionyl-tRNA synthetase, putative (Trypanosoma brucei brucei, UniProt Q38C91); format: functional, Trypanosoma brucei brucei strain 927/4 GUTat10.1
T5 sequence (Q38C91 whole entry): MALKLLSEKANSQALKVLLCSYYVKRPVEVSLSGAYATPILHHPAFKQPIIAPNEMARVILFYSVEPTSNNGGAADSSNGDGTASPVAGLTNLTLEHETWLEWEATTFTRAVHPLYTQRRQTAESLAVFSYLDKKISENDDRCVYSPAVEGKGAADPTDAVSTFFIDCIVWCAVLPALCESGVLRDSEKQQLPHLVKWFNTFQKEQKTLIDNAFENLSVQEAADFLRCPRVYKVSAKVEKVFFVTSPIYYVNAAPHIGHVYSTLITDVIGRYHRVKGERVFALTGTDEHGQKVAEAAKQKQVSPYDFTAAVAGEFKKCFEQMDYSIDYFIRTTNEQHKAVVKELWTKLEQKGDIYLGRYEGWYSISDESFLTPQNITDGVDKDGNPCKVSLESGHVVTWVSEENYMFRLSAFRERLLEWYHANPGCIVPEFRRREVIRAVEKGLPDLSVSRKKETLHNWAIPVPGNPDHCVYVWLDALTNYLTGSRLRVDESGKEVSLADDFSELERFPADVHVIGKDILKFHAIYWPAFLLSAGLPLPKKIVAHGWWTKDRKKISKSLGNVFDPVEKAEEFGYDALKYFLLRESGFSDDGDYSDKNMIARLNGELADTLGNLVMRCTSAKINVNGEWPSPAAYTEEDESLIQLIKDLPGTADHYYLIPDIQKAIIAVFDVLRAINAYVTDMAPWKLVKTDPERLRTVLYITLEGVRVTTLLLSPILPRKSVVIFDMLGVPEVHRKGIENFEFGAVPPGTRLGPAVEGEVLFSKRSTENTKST

[27] = target: T5, Methionyl-tRNA synthetase, putative; format: functional, Trypanosoma brucei brucei strain 927/4 GUTat10.1; remark: listed apart in the source
[28] = target: Heat shock protein HSP 90-alpha (Homo sapiens, UniProt P07900); format: functional, organism-based

Cytochrome P450 2C19, sequence (P33261 whole entry): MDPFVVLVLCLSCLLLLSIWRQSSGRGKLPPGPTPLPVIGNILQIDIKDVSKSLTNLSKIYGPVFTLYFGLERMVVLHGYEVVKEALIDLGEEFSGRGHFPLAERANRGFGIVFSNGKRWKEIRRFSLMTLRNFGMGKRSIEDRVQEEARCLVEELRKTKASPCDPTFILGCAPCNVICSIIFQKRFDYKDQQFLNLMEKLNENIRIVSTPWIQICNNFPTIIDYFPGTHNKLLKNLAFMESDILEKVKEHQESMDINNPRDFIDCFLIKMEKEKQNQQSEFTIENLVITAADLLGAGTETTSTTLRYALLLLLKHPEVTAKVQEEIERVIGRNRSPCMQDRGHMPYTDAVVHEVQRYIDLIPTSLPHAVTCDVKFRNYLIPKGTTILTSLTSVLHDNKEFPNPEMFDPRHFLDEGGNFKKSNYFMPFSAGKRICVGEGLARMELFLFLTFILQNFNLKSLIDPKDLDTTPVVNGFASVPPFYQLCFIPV

CC(=O)c1ccc(OC2C=CC(C#Cc3ccc(Br)cc3)OC2CO)cc1 (centres undefined)
AC50 (Cytochrome P450 2C19): 3.98 µM (inconclusive)

C[C@H]1CN([C@@H](C)CO)C(=O)c2cc(C#CCc3ccccc3)cnc2O[C@H]1CN(C)Cc1ccccc1
AC50 [1]: 38.2 µM (active) | AC50 [2]: > 52 µM (inactive) | AC50 [3]: 23.3 µM (active)

Cc1ccc(C(=O)NCC(=O)OCC(=O)c2c(N)n(C)c(=O)n(C)c2=O)s1
IC50 (Estrogen receptor beta [4]): 6.1 µM (not active) | IC50 (Estrogen receptor): > 50 µM (not active) | IC50 (Estrogen receptor beta [5]): 6.84 µM (active)

CN(C)C(=O)c1ccc(-c2ccc([C@H]3[C@H](CO)N4CCCCN(C(=O)C5CCCC5)C[C@@H]34)cc2)cc1
AC50 [6]: 0.0488 µM (active)

O=C(COC(=O)c1ccc([N+](=O)[O-])o1)NC12CC3CC(CC(C3)C1)C2
IC50 [7]: 6.85 µM (active) | IC50 [8]: 5.13 µM (active)

C[C@@H]1CCCCO[C@@H](CN(C)C(=O)Nc2cccc3ccccc23)[C@H](C)CN([C@H](C)CO)C(=O)c2cc(NC(=O)CCC(F)(F)F)ccc2O1
AC50 [9]: 1.08 µM (active)

COc1ccccc1NC(=O)c1ccc(NC(=O)CSc2nnnn2C)cc1
IC50 [10]: 35.9 µM (inactive) | CC50 [11]: > 40 µM (active) | IC50 [12]: 0.437 µM (active) | IC50 (Steroidogenic factor 1): 0.77 µM (active)

COc1ccc(C#Cc2cccc(-c3nc(C(=O)NCc4ccc5c(c4)OCO5)cc4c3[C@@H](CCO)N([S+]([O-])C(C)(C)C)C4)c2)cc1OC (some centres undefined)
AC50 [13]: 2.05 µM (active) | AC50 [14]: 0.747 µM (active) | AC50 [15]: 0.838 µM (active) | AC50 [16]: > 100 µM (inactive) | AC50 [6]: 0.58 µM (active) | AC50 [17]: 1.52 µM (active)

O=C(C[C@H]1C[C@@H]2c3cc(NS(=O)(=O)c4ccc(F)cc4)ccc3O[C@@H]2[C@@H](CO)O1)N1CCc2ccccc2C1
AC50 [9]: 6.85 µM (active) | AC50 (Paired box protein Pax-8): 3.86 µM (active) | AC50 [18]: 23.9 µM (active) | AC50 [14]: 9.73 µM (active) | AC50 [19]: 57.8 µM (active) | AC50 [20]: 26.1 µM (active) | AC50 [21]: 17.5 µM (active)

COc1ccc(S(=O)(=O)Nc2ccc3c(c2)C(=O)N([C@@H](C)CO)C[C@H](C)[C@@H](CN(C)C(=O)Nc2ccc(F)cc2)OCCCC[C@H](C)O3)cc1
AC50 (Paired box protein Pax-8): 9.96 µM (active) | AC50 [19]: 59.1 µM (active)

COc1ccc2c(c1OC)C(=O)O[C@H]2[C@@H]1c2cc3c(cc2CCN1C)OCO3
IC50 [22]: > 33.3 µM (inactive)

CCCCC#CC1C=CC(OC(C)=O)C(COC(C)=O)O1 (centres undefined)
AC50 (Cytochrome P450 2C19): 7.94 µM (inconclusive)

CN(C)CC(=O)N1CCCCN2[C@@H](CO)[C@H](c3ccc(/C=C/c4ccccc4)cc3)[C@@H]2C1
AC50 [21]: 23.8 µM (active)

O=C(Nc1c(-c2ccccc2)n[nH]c1O)c1cccc(C(F)(F)F)c1
IC50 [7]: 65.3 µM (inactive) | IC50 [8]: 87.3 µM (inactive)

CCC(C)NS(=O)(=O)c1ccc(NS(=O)(=O)c2ccc(F)cc2)cc1 (centres undefined)
IC50 [23]: > 100 µM (active)

COc1ccc(NC(=O)N(C)C[C@H]2Oc3c(NC(=O)CCCCCC(=O)Nc4ccccc4N)cccc3C(=O)N([C@@H](C)CO)C[C@H]2C)cc1
AC50 [9]: 0.983 µM (active)

CCOC(=O)/C(C#N)=C/c1c(OCC)n(CC)c2ccccc12
IC50 [23]: > 100 µM (active)

O=C(NC1CCCC1)C(c1ccncc1)N(Cc1ccccc1F)C(=O)c1csnn1 (centres undefined)
AC50 [21]: 34.7 µM (active)

COc1ccc(CCNC(=O)COC(=O)Cc2ccccc2[N+](=O)[O-])cc1
IC50 [10]: 35.9 µM (inactive) | IC50 [12]: 35.9 µM (inactive) | IC50 (Steroidogenic factor 1): 2.36 µM (active)

CC(=N)/C(C#N)=C(/O)CSc1nnc(Nc2ccccc2C)s1
IC50 (Estrogen receptor beta [4]): 5.18 µM (not active) | IC50 (Estrogen receptor beta [5]): 12.2 µM (active)

COc1cc2nc(Nc3cccc(F)c3)nc(N)c2cc1OC
AC50 [24]: 8.77 µM (active) | IC50 [25]: 35.5 µM (inactive) | IC50 [26]: 26.2 µM (inactive) | IC50 [27]: 18.2 µM (inactive)

CN(C)C(=O)c1cccc(-c2ccc([C@H]3[C@H](CO)N4CCCCN(CC5CCOCC5)C[C@@H]34)cc2)c1
AC50 [6]: 4.63 µM (active)

CCCCCCCCCCCCCCCC[n+]1ccccc1
AC50 [28]: 2.73 µM (active) | AC50 [24]: 5.71 µM (active)

COc1cc(OC)cc(C(=O)N[C@H](C(=O)OCC(=O)Nc2ccc3c(c2)OCO3)C(C)C)c1
IC50 [10]: 35.9 µM (inactive) | IC50 [12]: 4.71 µM (active) | IC50 (Steroidogenic factor 1): 5.72 µM (active)
